Measured values from patent publication US20260285850A1, “SUBSTITUTED OXAZOLIDINONES AND IMIDAZOLINONES AS HERBICIDES” (FMC CORPORATION, priority 2023, published 2026).

Key:
Format in all cases: in vivo
[1] = test system: barnyardgrass (Echinochloa crus-galli); assay: Test A postemergence application, visual injury rating 0-100; conditions: for Barnyardgrass plant response rating (0 to 100 scale): Postemergence
In short: (§1)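 Rating: visual, day 10, untreated plants as reference, 0 no effect to 100 full control. Plants were in loam-sand and were treated either preemergence via directed soil spray or postemergence at the one- to two-leaf stage.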

soybean (Glycine max) [2] = assay: as above; conditions: for Soybean plant response rating (0 to 100 scale): Postemergence
In short: as §1

[3] = test system: ryegrass, Italian (italian ryegrass, Lolium multiflorum); assay: as above; conditions: for Ryegrass, Italian plant response rating (0 to 100 scale): Postemergence
In short: as §1

[4] = test system: ragweed (common ragweed, Ambrosia artemisiifolia); assay: as above; conditions: for Ragweed plant response rating (0 to 100 scale): Postemergence
In short: as §1

kochia (Bassia scoparia) [5] = assay: as above; conditions: for Kochia plant response rating (0 to 100 scale): Postemergence
In short: as §1

corn (Zea mays) [6] = assay: as above; conditions: for Corn plant response rating (0 to 100 scale): Postemergence
In short: as §1

[7] = test system: oat, wild (wild oat, Avena fatua); assay: as above; conditions: for Oat, Wild plant response rating (0 to 100 scale): Postemergence
In short: as §1

[8] = test system: blackgrass (Alopecurus myosuroides); assay: as above; conditions: for Blackgrass plant response rating (0 to 100 scale): Postemergence
In short: as §1

[9] = test system: horseweed (Erigeron canadensis); assay: as above; conditions: for Horseweed plant response rating (0 to 100 scale): Postemergence
In short: as §1

[10] = test system: galium (catchweed bedstraw, Galium aparine); assay: as above; conditions: for Galium plant response rating (0 to 100 scale): Postemergence
In short: as §1

[11] = test system: palmer (palmer amaranth, palmer pigweed, Amaranthus palmeri); assay: as above; conditions: for Amaranth, Palmer / Pigweed, Palmer plant response rating (0 to 100 scale): 0 is no effect, 100 is complete control
In short: as §1

[12] = test system: wheat (Triticum aestivum); assay: as above; conditions: for Wheat plant response rating (0 to 100 scale): Postemergence
In short: as §1

[13] = test system: green foxtail (Setaria viridis); assay: as above; conditions: for Foxtail, Green plant response rating (0 to 100 scale): Postemergence
In short: as §1

[14] = test system: barnyardgrass (Echinochloa crus-galli); assay: Test A preemergence soil spray, visual injury rating 0-100; conditions: 10 days
In short: as §1

soybean (Glycine max) [15] = assay: as above; conditions: 10 days
In short: as §1

[16] = test system: ryegrass, Italian (italian ryegrass, Lolium multiflorum); assay: as above; conditions: 10 days
In short: as §1

[17] = test system: ragweed (common ragweed, Ambrosia artemisiifolia); assay: as above; conditions: 10 days
In short: as §1

kochia (Bassia scoparia) [18] = assay: as above; conditions: 10 days; for Kochia plant response rating (0 to 100 scale): 0 = no effect, 100 = complete control
In short: as §1

corn (Zea mays) [19] = assay: as above; conditions: 10 days
In short: as §1

[20] = test system: oat, wild (wild oat, Avena fatua); assay: as above; conditions: 10 days
In short: as §1

[21] = test system: blackgrass (Alopecurus myosuroides); assay: as above; conditions: 10 days
In short: as §1

[22] = test system: palmer (palmer amaranth, palmer pigweed, Amaranthus palmeri); assay: as above; conditions: 10 days
In short: as §1

[23] = test system: wheat (Triticum aestivum); assay: as above; conditions: 10 days
In short: as §1

[24] = test system: green foxtail (Setaria viridis); assay: as above; conditions: 10 days
In short: as §1

[25] = test system: barnyardgrass (Echinochloa crusgalli); assay: Test B flooded paddy test, visual plant response rating 0-100; conditions: 250 g ai/ha, Flood, applied to paddy water, evaluated after 13 days
In short: (§2)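 Treatment occurs at the 2-leaf stage by adding compound to floodwater standing 3 cm above the soil, a level kept for the whole test. Plants stay in the greenhouse 13 days before visual comparison with controls.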

[26] = test system: ducksalad (Heteranthera limosa); assay: as above; conditions: 250 g ai/ha, Flood, applied to paddy water, evaluated after 13 days
In short: as §2

[27] = test system: sedge, umbrella (small-flower umbrella sedge, Cyperus difformis); assay: as above; conditions: 250 g ai/ha, Flood, applied to paddy water, evaluated after 13 days
In short: as §2

rice (Oryza sativa) = assay: as above; conditions: 250 g ai/ha, Flood, applied to paddy water, evaluated after 13 days
In short: as §2

[28] = 125 g ai/ha, 10 days, 0 is no effect, 100 is complete control
[29] = 500 g ai/ha, 10 days, 0 is no effect, 100 is complete control
[30] = 125 g ai/ha, 0 = no effect, 100 = complete control
[31] = 500 g ai/ha, 0 = no effect, 100 = complete control
[32] = 62 g ai/ha, postemergence, 10 days, 0 = no effect, 100 = complete control
[33] = 16 g ai/ha, greenhouse 10 days, 0 no effect, 100 complete control
[34] = 62 g ai/ha, 0 = no effect, 100 = complete control

## CSCCOC(=O)C1C=CC(NC(=O)C2(C)CN(c3cc(Cl)cc(Cl)c3)C(=O)O2)C1 (stereo not shown) [Compound 45]
[1]; [28]
  Barnyardgrass plant response rating (0 to 100 scale): 100
[1]; [29]
  Barnyardgrass plant response rating (0 to 100 scale): 100
Soybean (Glycine max) [2]; [28]
  Soybean plant response rating (0 to 100 scale): 90
Soybean (Glycine max) [2]; [29]
  Soybean plant response rating (0 to 100 scale): 90
[3]; [28]
  Ryegrass, Italian plant response rating (0 to 100 scale): 80
[3]; [29]
  Ryegrass, Italian plant response rating (0 to 100 scale): 80
[4]; [28]
  Ragweed plant response rating (0 to 100 scale): 70
[4]; [29]
  Ragweed plant response rating (0 to 100 scale): 80
Kochia (Bassia scoparia) [5]; [28]
  Kochia plant response rating (0 to 100 scale): 80
Kochia (Bassia scoparia) [5]; [29]
  Kochia plant response rating (0 to 100 scale): 80
Corn (Zea mays) [6]; [28]
  Corn plant response rating (0 to 100 scale): 100
Corn (Zea mays) [6]; [29]
  Corn plant response rating (0 to 100 scale): 100
[7]; [28]
  Oat, Wild plant response rating (0 to 100 scale): 90
[7]; [29]
  Oat, Wild plant response rating (0 to 100 scale): 90
[8]; [28]
  Blackgrass plant response rating (0 to 100 scale): 100
[8]; [29]
  Blackgrass plant response rating (0 to 100 scale): 100
[9]; [28]
  Horseweed plant response rating (0 to 100 scale): 80
[9]; [29]
  Horseweed plant response rating (0 to 100 scale): 80
[10]; [28]
  Galium plant response rating (0 to 100 scale): 70
[10]; [29]
  Galium plant response rating (0 to 100 scale): 70
[11]; Postemergence, 125 g ai/ha, 10 days
  Amaranth, Palmer / Pigweed, Palmer plant response rating (0 to 100 scale): 100
[11]; Postemergence, 500 g ai/ha, 10 days
  Amaranth, Palmer / Pigweed, Palmer plant response rating (0 to 100 scale): 100
[12]; [28]
  Wheat plant response rating (0 to 100 scale): 90
[12]; [29]
  Wheat plant response rating (0 to 100 scale): 90
[13]; [28]
  Foxtail, Green plant response rating (0 to 100 scale): 80
[13]; [29]
  Foxtail, Green plant response rating (0 to 100 scale): 90
[14]; [30]
  Barnyardgrass plant response rating (0 to 100 scale): 100
[14]; [31]
  Barnyardgrass plant response rating (0 to 100 scale): 100
Soybean (Glycine max) [15]; [30]
  Soybean plant response rating (0 to 100 scale): 30
Soybean (Glycine max) [15]; [31]
  Soybean plant response rating (0 to 100 scale): 60
[16]; [30]
  Ryegrass, Italian plant response rating (0 to 100 scale): 90
[16]; [31]
  Ryegrass, Italian plant response rating (0 to 100 scale): 90
[17]; [30]
  Ragweed plant response rating (0 to 100 scale): 20
[17]; [31]
  Ragweed plant response rating (0 to 100 scale): 70
Kochia (Bassia scoparia) [18]; 125 g ai/ha
  Kochia plant response rating (0 to 100 scale): 20
Kochia (Bassia scoparia) [18]; 500 g ai/ha
  Kochia plant response rating (0 to 100 scale): 100
Corn (Zea mays) [19]; [30]
  Corn plant response rating (0 to 100 scale): 20
Corn (Zea mays) [19]; [31]
  Corn plant response rating (0 to 100 scale): 60
[20]; [30]
  Oat, Wild plant response rating (0 to 100 scale): 80
[20]; [31]
  Oat, Wild plant response rating (0 to 100 scale): 90
[21]; [30]
  Blackgrass plant response rating (0 to 100 scale): 90
[21]; [31]
  Blackgrass plant response rating (0 to 100 scale): 90
[22]; [30]
  Amaranth, Palmer plant response rating (0 to 100 scale): 100
[22]; [31]
  Amaranth, Palmer plant response rating (0 to 100 scale): 100
[23]; [30]
  Wheat plant response rating (0 to 100 scale): 90
[23]; [31]
  Wheat plant response rating (0 to 100 scale): 90
[24]; [30]
  Foxtail, Green plant response rating (0 to 100 scale): 90
[24]; [31]
  Foxtail, Green plant response rating (0 to 100 scale): 100
[25]
  Plant response rating, Barnyardgrass (0 to 100 scale, 0 is no effect and 100 is complete control): 75
[26]
  Plant response rating, Ducksalad (0 to 100 scale, 0 is no effect and 100 is complete control): 100
[27]
  Plant response rating, Sedge, Umbrella (0 to 100 scale, 0 is no effect and 100 is complete control): 100
Rice (Oryza sativa)
  Plant response rating, Rice (0 to 100 scale, 0 is no effect and 100 is complete control): 15

## Cc1cc(C)cc(N2CC(C)(C(=O)NC3C=CC(C(=O)O)C3)OC2=O)c1 (stereo not shown) [Compound 126]
[1]; [32]
  Barnyardgrass plant response rating (0-100): 90
[1]; [33]
  Barnyardgrass plant response rating (0 to 100 scale): 50
Soybean (Glycine max) [2]; [32]
  Soybean plant response rating (0-100): 60
Soybean (Glycine max) [2]; [33]
  Soybean plant response rating (0 to 100 scale): 0
[3]; [32]
  Ryegrass, Italian plant response rating (0-100): 60
[3]; [33]
  Ryegrass, Italian plant response rating (0 to 100 scale): 30
[4]; [32]
  Ragweed plant response rating (0-100): 30
[4]; [33]
  Ragweed plant response rating (0 to 100 scale): 0
Kochia (Bassia scoparia) [5]; [32]
  Kochia plant response rating (0-100): 30
Kochia (Bassia scoparia) [5]; [33]
  Kochia plant response rating (0 to 100 scale): 0
Corn (Zea mays) [6]; [32]
  Corn plant response rating (0-100): 100
Corn (Zea mays) [6]; [33]
  Corn plant response rating (0 to 100 scale): 20
[7]; [32]
  Oat, Wild plant response rating (0-100): 90
[7]; [33]
  Oat, Wild plant response rating (0 to 100 scale): 30
[8]; [32]
  Blackgrass plant response rating (0-100): 90
[8]; [33]
  Blackgrass plant response rating (0 to 100 scale): 60
[9]; [32]
  Horseweed plant response rating (0-100): 20
[9]; [33]
  Horseweed plant response rating (0 to 100 scale): 0
[10]; [32]
  Galium plant response rating (0-100): 80
[10]; [33]
  Galium plant response rating (0 to 100 scale): 70
[11]; [32]
  Pigweed, Palmer plant response rating (0-100): 30
[11]; Postemergence, 16 g ai/ha, greenhouse 10 days, 0 no effect, 100 complete control
  Pigweed, Palmer plant response rating (0 to 100 scale): 10
[12]; [32]
  Wheat plant response rating (0-100): 90
[12]; [33]
  Wheat plant response rating (0 to 100 scale): 30
[13]; [32]
  Foxtail, Green plant response rating (0-100): 30
[13]; [33]
  Foxtail, Green plant response rating (0 to 100 scale): 0
[14]; 16 g ai/ha, 0 to 100 scale
  Barnyardgrass plant response rating: 10
[14]; [34]
  Barnyardgrass plant response rating (0-100): 90
Soybean (Glycine max) [15]; 16 g ai/ha, 0 to 100 scale
  Soybean plant response rating: 0
Soybean (Glycine max) [15]; [34]
  Soybean plant response rating (0-100): 0
[16]; 16 g ai/ha, 0 to 100 scale
  Ryegrass, Italian plant response rating: 0
[16]; [34]
  Ryegrass, Italian plant response rating (0-100): 40
[17]; 16 g ai/ha, 0 to 100 scale
  Ragweed plant response rating: 0
[17]; [34]
  Ragweed plant response rating (0-100): 0
Kochia (Bassia scoparia) [18]; 16 g ai/ha, 0 to 100 scale
  Kochia plant response rating: 0
Corn (Zea mays) [19]; 16 g ai/ha, 0 to 100 scale
  Corn plant response rating: 0
Corn (Zea mays) [19]; [34]
  Corn plant response rating (0-100): 40
[20]; 16 g ai/ha, 0 to 100 scale
  Oat, Wild plant response rating: 0
[20]; [34]
  Oat, Wild plant response rating (0-100): 30
[21]; 16 g ai/ha, 0 to 100 scale
  Blackgrass plant response rating: 0
[21]; [34]
  Blackgrass plant response rating (0-100): 40
[22]; 16 g ai/ha, 0 to 100 scale
  Pigweed, Palmer plant response rating: 20
[22]; [34]
  Pigweed, Palmer plant response rating (0-100): 50
[23]; 16 g ai/ha, 0 to 100 scale
  Wheat plant response rating: 20
[23]; [34]
  Wheat plant response rating (0-100): 90
[24]; 16 g ai/ha, 0 to 100 scale
  Foxtail, Green plant response rating: 0
[24]; [34]
  Foxtail, Green plant response rating (0-100): 10
[25]
  Plant response rating, Barnyardgrass (0 to 100 scale, 0 is no effect and 100 is complete control): 25
[26]
  Plant response rating, Ducksalad (0 to 100 scale, 0 is no effect and 100 is complete control): 55
[27]
  Plant response rating, Sedge, Umbrella (0 to 100 scale, 0 is no effect and 100 is complete control): 35
Rice (Oryza sativa)
  Plant response rating, Rice (0 to 100 scale, 0 is no effect and 100 is complete control): 5
